According to ChEMBL document CHEMBL4699467, “Progress towards a stable cephalosporin-halogenated phenazine conjugate for antibacterial prodrug applications” (Bioorg Med Chem Lett, 2020):
Values after ≈ are worked out from the molar mass of the structure shown.

Experiments:
[1] = Stability of the compound in methicillin-resistant Staphylococcus aureus BAA-1707 for 16 to 18 hrs; assay type: ADME; details: time 16-18 hrs
[2] = test system: Staphylococcus aureus; assay: Antibacterial activity against methicillin-resistant Staphylococcus aureus BAA-1707 assessed as inhibition of bacterial growth incubated for 16 to 18 hrs by CLSI protocol based two fold serial dilution method; assay type: functional; details: time hrs 16-18

| SMILES | Stabilty [1] | MIC [2] [µM] |
| --- | --- | --- |
| O=C(Cc1cccs1)N[C@@H]1C(=O)N2C(C(=O)OC(c3ccccc3)c3ccccc3)=C(COC(=O)Oc3c(Br)cc(Br)c4nc5ccccc5nc34)CS[C@H]12 | Stable | > 100 |
| Oc1c(Br)cc(Br)c2nc3ccccc3nc12 | – | 1 (≈ 0.354 µg/mL) |
